Experiments:
[1] = Solubility test of 10 µM solutions in 1:1000 DMSO:PIPES buffer; assay type: physicochemical
Method: 10 mM solutions of PTX derivatives in DMSO were prepared. All substances were soluble in DMSO at this concentration. 10 µM solutions of were obtained by 1:1000 dilution of the stock solution into 80 mM PIPES buffer pH 6.8, containing 2 mM MgCl2 and 1 mM EGTA. Table A: solubility test of 10 µM solutions of PTX derivatives in 1:1000 DMSO:PIPES buffer

[2] = Photocleavage study: irradiation at 360 nm, composition by HPLC; assay type: physicochemical; details: 1 mM, 5% water in acetonitril, share of the labelled species
Method: The photolysis of the compounds 2'-Nvoc-PTX and 2',7-bisNvoc-PTX was followed by UV and HPLC analysis of the correspondent solutions after exposure to light at λmax = 360 nm (2.7 mW/cm^2).
3 ml of a 1 mM solution of caged PTX in acetonitrile containing 5% water was placed into a quartz cuvette and was exposed at 360 nm for different irradiation times. Aliquots of 50 µl were taken after various irradiation times, and each aliquot was splitted in two parts. 20 µl were diluted to 400 µl to obtain 50 µM solution for UV-Vis characterisation. The 30 µl left from each aliquot were injected into the HPLC (20 µl loop, analytical column) in order to estimate the composition of the irradiated mixture.
Photocleavage of compound 2',7-bisNvoc-PTX was expected to yield the mono-substituted species 2'-Nvoc-PTX and 7-Nvoc-PTX as intermediates that can be further photolyzed to afford free PTX. In fact, HPLC analysis (Fig. 1) confirmed the presence of 2'-Nvoc-PTX (retention time, r.t.= 16.7 min) and 7-Nvoc-PTX (r.t. = 18.2 min) together with the starting compound 2',7-bisNvoc-PTX (r.t. = 21.3 min) and the fully deprotected PTX (r.t. = 11.1 min). The ratio of these compounds within the composition of the irradiated mixture changes with the exposure dose. Fig. 2 and Table B below show the compositional evolution of the mixture with increasing irradiation time as obtained by HPLC analysis. […] However, the influence of other structural factors in the photolytic mechanism cannot be ruled out. Compound 7-Nvoc-PTX could also be isolated from the irradiated mixture in milligram scale. Table B. Molar composition of a solution of 2',7-bisNvoc-PTX (1 mM, 5% water in acetonitril) after different irradiation times, as determined by analysis of HPLC graphs (Fig. 2)

[3] = tested on: HeLa cells; assay type: cell-based, Human; details: 48 h
Method: (§1) Human cervix carcinoma cells, HeLa cells (#ACC57, DMSZ, Germany), were cultured in DMEM medium (Invitrogen) supplemented with 10% fetal calf serum (FCS, Gibco) in a humidified incubator at 37°C/5%CO2.
In order to evaluate the bioactivity of the caged PCT derivatives, their cytotoxicity was tested in vitro using HeLa cells. Cells were incubated with PTX and caged PTX derivatives at concentrations between 0.01 and 10 µM.
The effect of PTX and derivatives on cell vitality was measured in a combined assay determining cytotoxicity and cell number by propidium iodide (PI) staining. HeLa cells (2x10^4 cells/well) were diluted in cell culture medium (DMEM, 10 % FCS) and seeded in 96 well-plates (black plate, clear bottom, corning, Amsterdam, Netherlands). The culture medium was replaced after ~16h by compound supplemented medium (200 µL, DMEM, 10 % FCS, 1 % DMSO) or medium without compound (DMEM, 10 % FCS, 1 % DMSO) as a specific control. After 48 h, dead cells with permeable cell membranes were stained with PI ([…], 15 min at 37°C, 5% CO2) and the PI fluorescence intensity was measured with a fluorescence plate reader (excitation wavelength 530 nm, emission wavelength 620 nm, Tecan Infinite M1000, Austria). Subsequently, the cells were lysed with 2% Triton X-100 diluted in DMEM (0.3% Triton X-100 per well, 15 min at 37°C, 5% CO2 and the PI fluorescence was measured again. The vitality of the cells was calculated by the ratio of dead cells (DC) before lyses and the total cell number (TCN) after lyses (1-DC/TCN).

[4] = tested on: HeLa cells; test: Live cell imaging of the microtubule network (Tubulin Tracker / DRAQ5, CLSM); assay type: cell-based, Human; details: 24 h
Method: as §1
In order to visualize the influence of the PTX derivatives in the microtubule network of the cell, a live cell microscopy analysis of HeLa cells after incubation with 10 µM PTX derivatives for 24 hours was performed.
Specifically, microtubules and nuclei of HeLa cells were fluorescently stained with Tubulin Tracker (Invitrogen) and DRAQ5 (biostatus, United Kingdom) respectively, and imaged by a Leica TCS SP5 confocal laser scanning microscopy (CLSM). 30x10^4 HeLa cells were seeded in 8-well chamber slides (Lab-Tek, nunc, Germany) and the culture medium was replaced after ~16 h by compound supplemented medium (250 µL, DMEM, 10% FCS, 1% DMSO) or medium without compound (DMEM, 10% FCS, 1% DMSO) as a specific control. After 24h, cells were carefully washed with Hank's Buffered Saline Solution (HBSS, with Ca^2+ and Mg^2+, Invitrogen) and the buffer was replaced by a staining solution containing 250 nM Tubulin Tracker (Invitrogen) and 5 µM DRAQ5. The cells were stained for 30 min at 37°C/5% CO2 in a humidified incubator. The staining solution was replaced by HBSS and the cells were directly imaged with a 100x plan apochromat (1.4 NA) oil immersion objective on the CLSM system equipped with a CO2 incubator and a temperature control. Tubulin Tracker was excited with an argon laser (488 nm) and the emission was detected by 500-580 nm. DRAQ5 was excited with a HeNe laser (633 nm) and the emission was detected by 650-730 nm. The images have a voxel height and width of 90 nm. Bright field images grabbed with an Olympus IX-70 inverted microscope with a 20x phase contrast objective. Image processing performed with Leica LAS AF lite and ImageJ (Fiji).

With `CC(=O)O[C@H]1C(=O)[C@@]2(C)[C@H]([C@H](OC(=O)c3ccccc3)[C@]3(O)C[C@H](OC(=O)[C@H](O)[C@@H](NC(=O)c4ccccc4)c4ccccc4)C(C)=C1C3(C)C)[C@]1(OC(C)=O)CO[C@@H]1C[C@@H]2O` [PTX, Paclitaxel] the “solubility test (appearance of solution)” value ([1]; 10 µM in 1:1000 DMSO:PIPES buffer (80 mM, pH 6.8), time 1 hr) was “clear solution”, the “solubility test (appearance of solution)” value ([1]; 10 µM in 1:1000 DMSO:PIPES buffer (80 mM, pH 6.8), time 8 hrs) was “clear solution” and the “solubility test (appearance of solution)” value ([1]; 10 µM in 1:1000 DMSO:PIPES buffer (80 mM, pH 6.8), time 24 hrs) was “Suspension”. The “solubility test (appearance of solution)” value ([1]; 10 µM in 1:1000 DMSO:PIPES buffer (80 mM, pH 6.8), time 30 hrs) was “white precipitate”, the “solubility test (appearance of solution)” value ([1]; 10 µM in 1:1000 DMSO:PIPES buffer (80 mM, pH 6.8, 2 mM MgCl2, 1 mM EGTA), time 5 min) was “clear solution” and the “Molar composition of a solution of 2',7-bisNvoc-PTX after irradiation” value (“Molar composition” below) ([2]; 360 nm (2.7 mW/cm^2), irradiation time 0 min) was 0%. For the same molecule, the “Molar composition” value ([2]; 360 nm, irradiation time 60 min) was 0%, the “Molar composition” value ([2]; 360 nm, irradiation time 270 min) was 1.7% and the “Molar composition” value ([2]; 360 nm, irradiation time 450 min) was 6.0%. For the same molecule, the “Molar composition” value ([2]; 360 nm, irradiation time 570 min) was 10.6%, the “Molar composition” value ([2]; 360 nm, irradiation time 735 min) was 18.5% and the “Molar composition” value ([2]; 360 nm, irradiation time 820 min) was 21.2%. The “Molar composition” value ([2]; 360 nm, irradiation time 1585 min) was 60.5%, the “concentration at which cell vitality is significantly reduced” value [3] was 0.1 µM and the “cell morphology / mitosis in microscopy images” value ([4]; 10 µM) was “mitosis of HeLa cells was blocked”. The “microtubule staining by Tubulin Tracker (fluorescence CLSM)” value ([4]; 10 µM) was “absence of the mitotic spindle stained with Tubulin Tracker” and the “concentration triggering the multiple nuclei pattern” value ([4]; patterns similar between the compounds (Fig. 6)) was 2 nM.
